Experiments:
[1] = test system: CD1 mice; test: PMA induced ear oedema in CD1 mice; assay type: in vivo, mouse; settings: topical, single dose of 250 or 100 μg/15 μL/ear; statistically significant vs positive control
Method: Male CD1 mice (Iffa Credo, France) weighing ˜35-40 g were randomly grouped (n=8 in vehicle treated test group, dexamethasone treated control group as well as in groups treated with compounds to be assayed). Test compounds, dexamethasone as well as vehicle (Trans-phase Delivery System, containing benzyl alcohol 10%, acetone 40% and isopropanol 50%) (all from Kemika, Croatia), were administered topically to the internal surface of the left ear thirty minutes prior to administration of phorbol 12-myristate 13-acetate (PMA) (Alexis biochemicals, USA). Test compounds were administered at a single dose of 250 or 100 μg/15 μL/ear and dexamethasone at a single dose of 50 μg/15 μL/ear. Thirty minutes later, 0.01% PMA solution in acetone was applied topically to the same area of each animal in a volume of 12 μL/ear. During the treatment and challenge, animals were anaesthetized by using inhalation anaesthesia. Six hours after the challenge, animals were euthanized by asphyxiation in 100% CO2 atmosphere. For assessing the auricular oedema, 8 mm discs were cut out of left and right auricular pinna and weighed. The degree of oedema was calculated by subtracting the weight of 8 mm disc of the untreated ear from that of the treated contralateral ear.

[2] = test system: IFNγ; test: Inhibition of IFNγ production by ConA stimulated mouse splenocytes; assay type: cell-based; settings: 25 μM
Method: (§1) Spleen cell suspension was obtained from BALB/c mice and lymphocytes separated by gradient density centrifugation on Histopaque 1.083 on 400 g for 30 minutes. They were washed once in medium, counted and their number adjusted as 3×10^5/200 μL/well in 96 flat bottomed culture plate in RPMI supplemented with 10% fetal bovine serum. Cells were stimulated on cytokine production by adding concanavalinA (ConA) at 5 μg/mL final concentration. Unstimulated cells were cultured in medium alone. Stock solution was prepared out of testing compounds as 10 mM in DMSO. Final concentrations made in cell culture medium were tested when they had been added together with ConA. After 72 hours incubation period cell culture supernatants were collected. In each sample IL-4, IL-5, IL-10 and IFNγ were detected and quantified using enzyme linked immunosorbent assay (ELISA) specific for pointed cytokines (R&D Systems).
(§2) To calculate results, standard curve was made out of measured OD values for recombinant protein in known concentrations. Cytokine content in unknown samples was calculated out of OD values extrapolated from the standard curve.
(§3) Percentage of inhibition is calculated using formula:
(§4) % Inhibition=(1−cytokine concentration of sample/cytokine concentration of positive control)×100.

[3] = test system: IL-5; test: Inhibition of IL-5 production by ConA stimulated mouse splenocytes; assay type: cell-based; settings: 25 μM
Method: as §1, §2, §3, §4

[4] = test system: IL-4; test: Inhibition of IL-4 production by ConA stimulated mouse splenocytes; assay type: cell-based; settings: 25 μM
Method: as §1, §2, §3, §4

[5] = test system: IL-10; test: Inhibition of IL-10 production by ConA stimulated mouse splenocytes; assay type: cell-based; settings: 25 μM
Method: as §1, §2, §3, §4

[6] = test system: IL-1β; test: Inhibition of IL-1β production by LPS stimulated human peripheral blood mononuclear cells (hPBMCs); assay type: cell-based; settings: 25 μM
Method: Blood was taken from healthy volunteer donor, diluted with the same volume of saline and was separated by gradient density centrifugation on FicollPaque™ Plus on 400 g for 30 minutes. PBMCs were collected, washed in RPMI, counted and number per mL was adjusted.
Collected PBMCs were cultured into 96 well tissue culture plate, flat bottom as 35.000 cells/well/200 uL in RPMI supplemented with 10% fetal bovine serum, prior inactivated on 56° C. for 30 minutes. Cells were stimulated on IL-1 production by adding LPS (serotype 0111:B4, Sigma, cat# L-2630), at final concentration 1 ng/mL. Unstimulated cells were cultured in medium alone. Stock solution was prepared out of testing compounds as 10 mM in DMSO. Final concentrations made in cell culture medium were tested when they had been added together with LPS. […] Negative and positive control samples were prepared in sextaplicates and samples with tested compound concentrations in triplicates. After overnight incubation in humidified atmosphere containing 5% CO2, supernatants were collected.
Harvested cell culture supernatants were quantified for IL-1β content by enzyme linked immunosorbent assay (ELISA).
as §3, §4

[7] = test system: Balb/cJ mice; test: LPS induced pulmonary neutrophilia in mice; assay type: in vivo, mouse; settings: LPS challenged mice; i.n., i.p. or per os
Method: Male Balb/cJ mice (Iffa Credo, France) weighing ˜25 g are randomly grouped into a negative control group, positive control group and groups treated with compounds to be assayed). Test compounds, as well as vehicle (DMSO+0.5% methyl-cellulose) (all from Sigma), are administered i.n., ip. or per os two hours prior to administration of lipopolysaccharide (LPS) (E. coli, serotype 0111:B4, Sigma) or two hours prior and two hours after administration of LPS. Test compounds are administered at a single dose (two hours prior the challenge) or divided into two doses (two hours prior and two hours after the challenge). LPS solution in phosphate buffered saline (PBS) (Sigma) is administered intranasally in volume of 60 μL at concentration of 33,33 μg/mL, to all experimental groups except the negative control group, which received the same volume (60 μL) of vehicle PBS. During the challenge, animals were anaesthetized by using intraperitoneal anaesthesia. Animals are euthanized by i.p. anesthesia overdose approximately 24 hours after application of LPS to obtain bronchoalveolar lavage fluid (BALF), which is used to determine total protein concentration as well as concentrations of cytokines, such as IL-1β and TNF-α, absolute number of cells, and percentage of neutrophils in BALF. Bronchoalveolar lavage (BAL) is performed by infusing 1 mL of PBS divided into 3 separate volumes (0.4, 0.3 and 0.3 ml) through trachea into the lungs. The fluid is immediately withdrawn and the cell suspension stored into previously prepared 1.5 mL Eppendorf tube. Bronchoalveolar lavage fluid (BALF) is then centrifuged at […] for 5 min (4° C.). Cells are resuspended in 700 μL of PBS. To prepare cytospins, 320 μL of suspension is centrifuged at 250 rpm for 10 min (Cytospin-3, Shandon Instruments). Cells are stained with Dif-Quik (Dade Behring) to determine percentage of neutrophils by counting of at least 200 cells. The remaining resuspended cells are used for total cell count in BALF analysis (Sysmex SF 3000). […] Accumulation of granulocytes and mononuclear cells in peribronclhial (PB) and perivascular (PV) lung tissue areas and alveolar spaces is monitored.
(§5) Results can be expressed as (I) decrease of absolute cell number per mL in BALF, (II) decrease of number of neutrophils per mL in BALF, (III) reduction of relative number (percentage) of neutrophils in BALF, (IV) reduction of cytokine concentrations in BALF, as well as (V) suppression of accumulation of granulocytes and mononuclear cells in peribronchial (PB) and perivascular (PV) lung tissue areas and in alveolar spaces by pathohistological scoring of treated animals compared to positive control (LPS stimulated, but untreated animals).

[8] = test system: Balb/C mice; test: Ovalbumin induced pulmonary eosinophilia in mice; assay type: in vivo, mouse; settings: OVA sensitized and challenged mice; i.n., i.p. or per os
Method: Male Balb/C mice with a body weight of 20-25 g are randomly divided into groups, and sensitized by an i.p. injection of ovalbumin (OVA, Sigma) on day zero and day fourteen. On the twentieth day, the mice are subjected to a challenge test by i.n. (intranasal) application of OVA (positive control or test groups) or PBS (negative control). The compounds are administered daily i.n., i.p. or per os in different doses starting 2 days before the challenge and up to the completion of the test. Compounds are administered as suspension either in PBS, methyl cellulose or carboxymethyl cellulose with addition od DMSO (up to 5% of the total volume). 48 hours after i.n. application of OVA, the animals are then anaesthetized to obtain bronchoalveolar lavage fluid (BALF), which is used to determine total protein concentration as well as concentrations of cytokines such as IL-1β and TNF-α, absolute number of cells, and percentage of eosinophils in BALF. Bronchoalveolar lavage (BAL) is performed by infusing 1 mL of PBS divided into 3 separate volumes (0.4, 0.3 and 0.3 ml) through trachea into the lungs. The fluid is immediately withdrawn and the cell suspension stored into previously prepared 1.5 mL Eppendorf tube. Bronchoalveolar lavage fluid (BALF) is then centrifuged at […] for 5 min (4° C.). Cells are resuspended in 700 μL of PBS. To prepare cytospins, 320 μL of suspension is centrifuged at 250 rpm for 10 min (Cytospin-3, Shandon Instruments). Cells are stained with Dif-Quik (Dade Behring) to determine percentage of eosinophils by counting of at least 100 cells. The remaining resuspended cells are used for total cell count in BALF analysis (Sysmex SF 3000). Finally, lungs are sampled and stored into 10% formalin for pathohistological evaluation of eosinophil and mononuclear infiltrate. Accumulation of eosinophils and mononuclear cells in peribronchial (PB) and perivascular (PV) lung tissue areas and in alveolar spaces is monitored.
as §5, with “eosinophils” for “neutrophils”, “eosinophils” for “granulocytes”, “(OVA” for “(LPS”
Fluticasone and beclomethasone are used as standard anti-inflammatory substances, and compared for ability to inhibit eosinophilia to the negative and positive controls.

[9] = test system: RBL-2H3 cell line; test: IgE-induced RBL-2H3 mast cell degranulation (Fcε receptor type I); assay type: cell-based, rat; settings: concentrations from 200-50 μM; RBL-2H3 cells; stimulus not specified
Method: RBL-2H3 cell line of rat basophilic leukaemia (ATCC) was used for the investigation of inhibition of degranulation induced by the activation of Fcε receptor type I or calcium ionophors. RBL-2H3 cell line was cultivated in DMEM medium (Invitrogen Cat. No. 31966-021) with 10% of phoetal calf serum (Invitrogen Corporation) at 37° C., 5% CO2, 90% relative humidity. Cells were seeded in the same medium into 24-well plates, 50000 per well, and left to reach 80-90% of confluence.
Dilutions of compounds were prepared in DMEM medium without phenol red (Invitrogen Corporation) in concentrations from 200 μM to 1 μM. The medium was removed from the cells and the diluted of compounds were added to the wells with the exception of the positive and the negative control where pure DMEM medium was added. Subsequently,
1. for the IgE-induced degranulation by Fcs receptor type I, a solution of SPE-1 (dinitrophenyl specific IgE) antibodies (Sigma) and dinitrophenylalbumin (Sigma), both in a final concentration of 0.5 μg/mL,
In the case of the negative control wells, pure DMEM medium was added. The cells were incubated for one hour at 37° C., 5% CO2, and 90% relative humidity. Each dilution as well as the positive and the negative controls were performed in triplicate. The supernatant (50 μL) was transferred in duplicate to a 96-well plate. […] The absorbance was measured at […]. […]

**Q.** For CCc1ccc2oc(=O)c(C(c3ccc(O)cc3)c3c(O)c4cc(CC)ccc4oc3=O)c(O)c2c1 [Example 244], which “suppression of ear oedema” value [1] is on record?
**A.** The value was “considered active”.

**Q.** And the “inhibition of IFNγ production” value [2]?
**A.** Its value is “significantly inhibited”.

**Q.** What about the “inhibition of IL-5 production” value [3] of the same compound?
**A.** Its value is “significantly inhibited”.

**Q.** And the “inhibition of IL-4 production” value [4]?
**A.** The value was “significantly inhibited”.

**Q.** What about the “inhibition of IL-10 production” value [5] of the same compound?
**A.** Its value is “significantly inhibited”.

**Q.** And the “inhibition of IL-1β production” value [6]?
**A.** The value was “significantly inhibited”.

**Q.** Which results are given for Cc1cc2oc(=O)c(C(c3c(O)c4cc(C)c(C)cc4oc3=O)C(C)O)c(O)c2cc1C (stereo not shown) [Example 363]?
**A.** reduction of percentage of neutrophils and/or their total number in BALF and/or by histological scoring [7]: statistically significant reduction; suppression of ear oedema [1]: considered active; reduction of percentage of eosinophils and/or their total number in BALF and/or by histological scoring [8]: statistically significant reduction

**Q.** With CN1CCC(=C2c3ccccc3CC(=O)c3sccc32)CC1 [Ketotifen, ketotifen] as the compound, how does the “inhibition of degranulation (standard)” value [9] read?
**A.** Its value is “significantly inhibits degranulation”.
